Where two headings read alike, the source gives them in different places. Numbered stars: 1 amine (or outer) side, 2 acyl side, 3 side chain; on linkers, the order of the positions; unused ones are H or OH. Square brackets hold non-standard residues; d marks the D form. Side chains are listed from the residue outwards. Peptide text beside a SMILES is read from it. * marks the point of attachment. γGlu = O=C(O)[C@H](CCC(=O)[*:2])N[*:1]; αMeF = C[C@](N)(Cc1ccccc1)C(=O)O; αMeK = C[C@](N)(CCCCN)C(=O)O; Lauroyl = CCCCCCCCCCCC(=O)*; αMeS = C[C@](N)(CO)C(=O)O; AEEA = NCCOCCOCC(=O)O; Aib = CC(C)(N)C(=O)O
Columns and labels:
Format in all cases: cell-based
Settings in all cases: tris-lipidated peptides
[1] = target: T1, human glucose-dependent insulinotropic peptide receptor (GIPR) (Homo sapiens, UniProt P48546); assay: cAMP assay, human GIPR cells
T1 construct: expressed in transfected cells
T1 sequence (P48546 22-466): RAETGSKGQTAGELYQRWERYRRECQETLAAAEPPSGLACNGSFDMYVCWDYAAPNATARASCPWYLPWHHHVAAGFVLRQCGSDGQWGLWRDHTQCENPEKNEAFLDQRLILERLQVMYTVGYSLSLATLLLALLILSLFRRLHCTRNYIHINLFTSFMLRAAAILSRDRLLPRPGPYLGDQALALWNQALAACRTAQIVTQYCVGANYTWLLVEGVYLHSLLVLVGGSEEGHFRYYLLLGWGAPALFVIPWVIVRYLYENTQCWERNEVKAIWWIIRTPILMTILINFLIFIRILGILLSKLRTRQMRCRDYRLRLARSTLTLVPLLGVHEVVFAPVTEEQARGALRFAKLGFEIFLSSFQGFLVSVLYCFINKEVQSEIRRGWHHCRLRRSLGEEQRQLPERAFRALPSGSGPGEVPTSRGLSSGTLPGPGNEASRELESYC
Outline: (§1)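 Peptide-stimulated cAMP measured by two-step HTRF after a 30 min room-temperature incubation with receptor-expressing cells (hGLP-1R, hGIPR at 1×10^5 cells/ml; hGCGR at 2×10^5 cells/ml). Duplicate dilutions; EC50 from 4-parameter logistic fit of % Delta F.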

[2] = target: T2, human glucagon receptor (GCGR) (Homo sapiens, UniProt P47871); assay: cAMP assay, human GCGR cells
T2 construct: expressed in transfected cells
T2 sequence (P47871 26-477): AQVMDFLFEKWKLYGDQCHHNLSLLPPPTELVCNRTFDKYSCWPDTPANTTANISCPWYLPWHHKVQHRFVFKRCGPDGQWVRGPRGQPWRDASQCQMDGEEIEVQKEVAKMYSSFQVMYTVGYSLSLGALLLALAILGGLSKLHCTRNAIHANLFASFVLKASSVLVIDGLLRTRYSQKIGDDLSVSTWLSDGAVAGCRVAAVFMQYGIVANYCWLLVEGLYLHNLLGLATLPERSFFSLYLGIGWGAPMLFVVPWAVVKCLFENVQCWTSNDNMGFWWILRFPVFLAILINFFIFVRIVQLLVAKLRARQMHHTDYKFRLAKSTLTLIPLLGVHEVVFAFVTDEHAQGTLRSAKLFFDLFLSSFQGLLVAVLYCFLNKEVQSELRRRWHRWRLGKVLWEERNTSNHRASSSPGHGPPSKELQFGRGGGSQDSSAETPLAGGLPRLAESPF
Outline: as §1

GLP-1R (INS1e assay) = target: T3, GLP-1R (INS1e assay) (Rattus norvegicus, UniProt P32301); assay: INS1e assay, cAMP activity at GLP-1R
T3 construct: endogenous in cells; host or cells: INS-1E cells
T3 sequence (P32301 22-463): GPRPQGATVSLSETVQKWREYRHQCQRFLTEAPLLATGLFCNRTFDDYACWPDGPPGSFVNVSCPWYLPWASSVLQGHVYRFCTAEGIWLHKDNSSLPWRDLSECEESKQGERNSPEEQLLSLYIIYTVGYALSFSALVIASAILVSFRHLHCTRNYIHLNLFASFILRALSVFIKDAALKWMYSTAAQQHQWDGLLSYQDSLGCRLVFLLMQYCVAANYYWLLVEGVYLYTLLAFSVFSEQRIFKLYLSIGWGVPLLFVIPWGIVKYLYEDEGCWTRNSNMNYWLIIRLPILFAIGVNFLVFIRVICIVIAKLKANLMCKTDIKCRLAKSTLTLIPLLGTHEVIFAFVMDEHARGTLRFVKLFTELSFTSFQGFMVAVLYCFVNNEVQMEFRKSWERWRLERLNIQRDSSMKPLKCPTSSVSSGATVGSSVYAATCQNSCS
Outline: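 cAMP was quantified by two-step HTRF, using anti-cAMP cryptate donor and cAMP-d2 acceptor, each diluted 1/20 in conjugate and lysis buffer. EC50 values of the synthetic peptides were derived from the cAMP readout.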

[3] = target: T4, human GLP-1 receptor (GLP-1R) (Homo sapiens, UniProt P43220); assay: cAMP assay, human GLP-1R cells
T4 construct: expressed in transfected cells
T4 sequence (P43220 24-463): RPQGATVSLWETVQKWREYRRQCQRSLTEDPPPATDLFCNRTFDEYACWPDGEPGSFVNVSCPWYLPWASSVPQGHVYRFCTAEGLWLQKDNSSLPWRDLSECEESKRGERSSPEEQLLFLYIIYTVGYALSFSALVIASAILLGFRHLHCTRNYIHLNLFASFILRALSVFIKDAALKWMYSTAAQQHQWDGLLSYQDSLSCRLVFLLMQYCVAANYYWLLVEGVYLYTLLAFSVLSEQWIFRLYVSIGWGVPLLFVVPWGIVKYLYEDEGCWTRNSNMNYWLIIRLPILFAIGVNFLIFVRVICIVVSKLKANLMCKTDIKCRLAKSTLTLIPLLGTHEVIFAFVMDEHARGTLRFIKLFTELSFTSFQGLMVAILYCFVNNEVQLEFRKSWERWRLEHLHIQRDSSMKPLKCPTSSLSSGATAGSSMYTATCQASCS
Outline: as §1

[4] = second replicate, read-out: Primary assay EC50 GIP-R (n2)
[5] = second replicate, read-out: Primary assay EC50 Gluc-R (n2)
[6] = mean of n1 and n2, read-out: INS1e assay EC50 Mean pM GLP-1R
[7] = replicate n1, read-out: INS1e assay EC50 GLP-1R n1
[8] = replicate n2, read-out: INS1e assay EC50 GLP-1R n2
[9] = mean of n1 and n2, read-out: Primary assay EC50 Mean pM GLP-1R
[10] = replicate n1, read-out: Primary assay EC50 GLP-1R n1
[11] = replicate n2, read-out: Primary assay EC50 GLP-1R n2
[12] = first replicate, read-out: Primary assay EC50 GIP-R (n1)
[13] = first replicate, read-out: Primary assay EC50 Gluc-R (n1)

Structure (SMILES) | EC50 [1, 4] | EC50 [2, 5] | EC50 (GLP-1R (INS1e assay); [6]) | EC50 (GLP-1R (INS1e assay); [7]) | EC50 (GLP-1R (INS1e assay); [8]) | EC50 [3, 9] | EC50 [3, 10] | EC50 [3, 11] | EC50 [1, 12] | EC50 [2, 13]
CCCCCCCCCCCC(=O)N[C@@H](CCC(=O)NCCOCCOCC(=O)NCCOCCOCC(=O)NCCCC[C@H](NC(=O)[C@H](CO)NC(=O)[C@](C)(CO)NC(=O)[C@@H](NC(=O)[C@H](CC(=O)O)NC(=O)[C@H](CO)NC(=O)[C@@H](NC(=O)[C@](C)(Cc1ccccc1)NC(=O)[C@H](CO)NC(=O)CNC(=O)[C@H](CCC(=O)O)NC(=O)C(C)(C)NC(=O)[C@@H](N)Cc1c[nH]cn1)[C@@H](C)O)C(C)C)C(=O)N[C@@H](CC(C)C)C(=O)N[C@@H](CCC(=O)O)C(=O)NCC(=O)N[C@@H](CCC(=O)O)C(=O)N[C@@H](C)C(=O)N[C@@H](C)C(=O)N[C@@](C)(CCCCN)C(=O)N[C@@H](CCCCNC(=O)COCCOCCNC(=O)COCCOCCNC(=O)CC[C@H](NC(=O)CCCCCCCCCCC)C(=O)O)C(=O)N[C@@H](Cc1ccccc1)C(=O)N[C@H](C(=O)N[C@@H](CCCCNC(=O)COCCOCCNC(=O)COCCOCCNC(=O)CC[C@H](NC(=O)CCCCCCCCCCC)C(=O)O)C(=O)N[C@@H](Cc1ccccc1)C(=O)N[C@H](C(=O)N[C@H](C(=O)N[C@@H](CCC(=O)O)C(=O)NCC(=O)NCC(N)=O)C(C)C)C(C)C)[C@@H](C)CC)C(=O)O [compound 450] (H-H[Aib]EGS[αMeF]TSDV[αMeS]SK([AEEA-AEEA-γGlu-Lauroyl])LEGEAA[αMeK]K([AEEA-AEEA-γGlu-Lauroyl])FIK([AEEA-AEEA-γGlu-Lauroyl])FVVEGG-NH2; N-terminus assumed) | 19.9 nM | 19.9 nM | 6810 pM | 6380 pM | 7240 pM | 49 pM | 28 pM | 70 pM | – | –
CCCCCCCCCCCC(=O)N[C@@H](CCC(=O)NCCOCCOCC(=O)NCCOCCOCC(=O)NCCCC[C@H](NC(=O)[C@H](Cc1ccc(O)cc1)NC(=O)[C@H](CO)NC(=O)[C@](C)(CO)NC(=O)[C@@H](NC(=O)[C@H](CC(=O)O)NC(=O)[C@H](CO)NC(=O)[C@@H](NC(=O)[C@](C)(Cc1ccccc1)NC(=O)[C@H](CO)NC(=O)CNC(=O)[C@H](CCC(=O)O)NC(=O)C(C)(C)NC(=O)[C@@H](N)Cc1c[nH]cn1)[C@@H](C)O)C(C)C)C(=O)N[C@@H](CCC(=O)O)C(=O)NCC(=O)N[C@@H](CCC(=O)O)C(=O)N[C@@H](C)C(=O)N[C@@H](C)C(=O)N[C@@](C)(CCCCN)C(=O)N[C@@H](CCCCNC(=O)COCCOCCNC(=O)COCCOCCNC(=O)CC[C@H](NC(=O)CCCCCCCCCCC)C(=O)O)C(=O)N[C@@H](Cc1ccccc1)C(=O)N[C@H](C(=O)N[C@@H](CCCCNC(=O)COCCOCCNC(=O)COCCOCCNC(=O)CC[C@H](NC(=O)CCCCCCCCCCC)C(=O)O)C(=O)N[C@@H](Cc1ccccc1)C(=O)N[C@H](C(=O)N[C@H](C(=O)N[C@@H](CCC(=O)O)C(=O)NCC(=O)NCC(N)=O)C(C)C)C(C)C)[C@@H](C)CC)C(=O)O [compound 454] (H-H[Aib]EGS[αMeF]TSDV[αMeS]SYK([AEEA-AEEA-γGlu-Lauroyl])EGEAA[αMeK]K([AEEA-AEEA-γGlu-Lauroyl])FIK([AEEA-AEEA-γGlu-Lauroyl])FVVEGG-NH2) | – | 19.7 nM | 5550 pM | 4100 pM | 6990 pM | 43.7 pM | 22.1 pM | 65.2 pM | 19.7 nM | –
CCCCCCCCCCCC(=O)N[C@@H](CCC(=O)NCCOCCOCC(=O)NCCOCCOCC(=O)NCCCC[C@H](NC(=O)[C@H](C)NC(=O)[C@@H](NC(=O)[C@H](Cc1ccccc1)NC(=O)[C@H](CCC(=O)O)NC(=O)[C@](C)(CCCCN)NC(=O)[C@H](C)NC(=O)[C@H](C)NC(=O)[C@H](CCC(=O)O)NC(=O)[C@H](CCCCNC(=O)COCCOCCNC(=O)COCCOCCNC(=O)CC[C@H](NC(=O)CCCCCCCCCCC)C(=O)O)NC(=O)[C@H](CCC(=O)O)NC(=O)[C@H](CC(C)C)NC(=O)[C@H](Cc1ccc(O)cc1)NC(=O)[C@H](CO)NC(=O)[C@H](CO)NC(=O)[C@H](CCCCNC(=O)COCCOCCNC(=O)COCCOCCNC(=O)CC[C@H](NC(=O)CCCCCCCCCCC)C(=O)O)NC(=O)[C@H](CC(=O)O)NC(=O)[C@H](CO)NC(=O)[C@@H](NC(=O)[C@](C)(Cc1ccccc1)NC(=O)[C@H](CO)NC(=O)CNC(=O)[C@H](CCC(=O)O)NC(=O)C(C)(C)NC(=O)[C@@H](N)Cc1c[nH]cn1)[C@@H](C)O)[C@@H](C)CC)C(=O)N[C@H](C(=O)N[C@H](C(=O)N[C@@H](CCC(=O)O)C(=O)NCC(=O)NCC(N)=O)C(C)C)C(C)C)C(=O)O [compound 455] (H-H[Aib]EGS[αMeF]TSDK([AEEA-AEEA-γGlu-Lauroyl])SSYLEK([AEEA-AEEA-γGlu-Lauroyl])EAA[αMeK]EFIAK([AEEA-AEEA-γGlu-Lauroyl])VVEGG-NH2) | 19.8 nM | – | 4910 pM | 6740 pM | 3080 pM | 87.4 pM | 54.8 pM | 120 pM | – | 19.8 nM
CCCCCCCCCCCC(=O)N[C@@H](CCC(=O)NCCOCCOCC(=O)NCCOCCOCC(=O)NCCCC[C@H](NC(=O)[C@H](C)NC(=O)[C@@H](NC(=O)[C@H](Cc1ccccc1)NC(=O)[C@H](CCCCNC(=O)COCCOCCNC(=O)COCCOCCNC(=O)CC[C@H](NC(=O)CCCCCCCCCCC)C(=O)O)NC(=O)[C@](C)(CCCCN)NC(=O)[C@H](C)NC(=O)[C@H](C)NC(=O)[C@H](CCC(=O)O)NC(=O)CNC(=O)[C@H](CCC(=O)O)NC(=O)[C@H](CC(C)C)NC(=O)[C@H](Cc1ccc(O)cc1)NC(=O)[C@H](CO)NC(=O)[C@H](CO)NC(=O)[C@H](CCCCNC(=O)COCCOCCNC(=O)COCCOCCNC(=O)CC[C@H](NC(=O)CCCCCCCCCCC)C(=O)O)NC(=O)[C@H](CC(=O)O)NC(=O)[C@H](CO)NC(=O)[C@@H](NC(=O)[C@](C)(Cc1ccccc1)NC(=O)[C@H](CO)NC(=O)CNC(=O)[C@H](CCC(=O)O)NC(=O)C(C)(C)NC(=O)[C@@H](N)Cc1c[nH]cn1)[C@@H](C)O)[C@@H](C)CC)C(=O)N[C@H](C(=O)N[C@H](C(=O)N[C@@H](CCC(=O)O)C(=O)NCC(=O)NCC(N)=O)C(C)C)C(C)C)C(=O)O [compound 458] (H-H[Aib]EGS[αMeF]TSDK([AEEA-AEEA-γGlu-Lauroyl])SSYLEGEAA[αMeK]K([AEEA-AEEA-γGlu-Lauroyl])FIAK([AEEA-AEEA-γGlu-Lauroyl])VVEGG-NH2; N-terminus assumed) | 20 nM | – | 3370 pM | 3070 pM | 3670 pM | 41.4 pM | 36.3 pM | 46.4 pM | – | 20 nM
CCCCCCCCCCCC(=O)N[C@@H](CCC(=O)NCCOCCOCC(=O)NCCOCCOCC(=O)NCCCC[C@H](NC(=O)[C@H](C)NC(=O)[C@@H](NC(=O)[C@H](Cc1ccccc1)NC(=O)[C@H](CCCCNC(=O)COCCOCCNC(=O)COCCOCCNC(=O)CC[C@H](NC(=O)CCCCCCCCCCC)C(=O)O)NC(=O)[C@](C)(CCCCN)NC(=O)[C@H](C)NC(=O)[C@H](C)NC(=O)[C@H](CCC(=O)O)NC(=O)CNC(=O)[C@H](CCC(=O)O)NC(=O)[C@H](CC(C)C)NC(=O)[C@H](CCCCNC(=O)COCCOCCNC(=O)COCCOCCNC(=O)CC[C@H](NC(=O)CCCCCCCCCCC)C(=O)O)NC(=O)[C@H](CO)NC(=O)[C@](C)(CO)NC(=O)[C@@H](NC(=O)[C@H](CC(=O)O)NC(=O)[C@H](CO)NC(=O)[C@@H](NC(=O)[C@](C)(Cc1ccccc1)NC(=O)[C@H](CO)NC(=O)CNC(=O)[C@H](CCC(=O)O)NC(=O)C(C)(C)NC(=O)[C@@H](N)Cc1c[nH]cn1)[C@@H](C)O)C(C)C)[C@@H](C)CC)C(=O)N[C@H](C(=O)N[C@H](C(=O)N[C@@H](CCC(=O)O)C(=O)NCC(=O)NCC(N)=O)C(C)C)C(C)C)C(=O)O [compound 466] (H-H[Aib]EGS[αMeF]TSDV[αMeS]SK([AEEA-AEEA-γGlu-Lauroyl])LEGEAA[αMeK]K([AEEA-AEEA-γGlu-Lauroyl])FIAK([AEEA-AEEA-γGlu-Lauroyl])VVEGG-NH2; N-terminus assumed) | – | – | 3200 pM | 3860 pM | 2550 pM | 22.4 pM | 17.2 pM | 27.5 pM | 20.2 nM | 20.2 nM
